This note sets out measurements from patent US9493460B2, “Diimide compounds” (UCL BUSINESS PLC, priority 2013, dated 2016).

Entries after “also recorded” stand apart in the source; their conditions may differ.

The nature of data set [1]: Tolerability and body weight in xenograft study. In kind it is in vivo. How it is done:
In a first experiment, mice were allocated into groups (six mice per group) as follows: control group (IV 100 uL/10g sterile PBS) and single dose of 20 mg/kg of 3d (IV 100 uL/10 g body weight in sterile PBS).
In a subsequent experiment using CD1 nu/nu female mice as described above, mice were allocated into groups (six mice per group) as follows: control group (IV 100 uL/10 g sterile PBS) and 3d at 15 mg/kg given once weekly. […] In the control group the median time to endpoint was 42 days compared to 79 days in the treated group.

Data set [2] in a line: Pharmacokinetics after bolus IV injection. In kind it is in vivo, Balb/c female mice. The settings on record: bolus IV 20 mg/kg, mice. The source says:
Balb/c female mice (7-8 weeks old) were housed in microisolator cages, fed with commercial mouse food (Food Harlam 2018, Madison, USA) and allowed to acclimatise for seven days before any procedure.

Data set [3] has as its system 83 human genes involved in DNA damage signaling responses in Mia-PaCa2 cells. The experiment in a line: qPCR array, DNA damage signaling response genes. The format is cell-based. How it is done: Following compound exposure, cells were washed twice in PBS, harvested by trypsinisation, collected by centrifugation (300 g, 5 min, 4° C.) and re-suspended in RLT buffer (Qiagen). Samples were homogenised using QIAshredder spin columns and stored at −80° C. prior to RNA extraction. Three biological replicates were performed on separate days.
The expression of (i) 83 key human genes involved in telomere replication and maintenance, and (ii) 83 human genes involved in DNA damage signaling responses, was assessed using PCR arrays (SABiosciences). Total RNA was extracted from approximately 1×10^7 Mia-PaCa2 cells treated for 24 h with compound 3d, using the RNeasy kit (Qiagen) with on-column DNaseI treatment to remove residual genomic DNA. The quality of the harvested RNA was confirmed by nanodrop spectroscopy and by analysis with a Human RT^2 RNA QC PCR Array. First-strand cDNA synthesis was performed with the RT^2 first strand kit and qPCR was carried out using the RT^2 qPCR master mix (Qiagen) using 0.5 μg total RNA per array plate in a Stratagene MX-3000P instrument (Agilent, USA). Relative gene expression was determined by the ΔΔCT method using the web-based RT^2 Profiler™ PCR Array Data Analysis software (SABiosciences). Data were normalized to the geometric mean of five housekeeping genes (RPLP10, β-actin, B2M, GAPDH and HPRT1).
Various quadruplex-stabilising agents are known to induce pronounced DNA damage responses. We therefore next assessed the effect of 3d on the transcription of genes associated with DNA damage response and repair pathways. For these pathways the effect of a cytotoxic dosage of 3d (160 nM) on Mia-PaCa2 cells was also tested to assess the correlation between compound-induced DNA damage and cell killing. […] The latter two groups appeared to reflect a dynamic switch in the cellular response from low-level growth inhibition up to 40 nM of 3d to cytostatic then cytotoxic effects at 80 nM and 160 nM respectively.
Instead the response was dominated by genes with roles in growth arrest and more general stress responses.
Background: In qPCR the cycle at which signal appears reflects the starting amount.

The next data set deals with telomerase. The experiment in a line: TRAP-LIG cellular telomerase activity assay. In kind it is cell-based, human. The settings on record: at the doses relevant to the IC50 values. The protocol: FIG. 1. Gel showing telomerase activity in MIA-Pa-Ca-2 cells treated with compound 3h after seven days of treatment. Lane 1; untreated cells, lanes 2-4; cells treated increasing concentrations of 3h. Telomerase activity was assessed using the TRAP-LIG assay as described in Materials and Methods. Compound concentrations are indicated. Neg; untreated cells, Pos; positive control. Neg: negative control with telomerase but no ligand.
Telomerase activity was determined using the TRAP-LIG assay, a modified telomere repeat amplification protocol that ensures that there is no carry-over of ligand into the second PCR step of the assay. Briefly, 1 μg of protein from untreated and treated cells were incubated with TS forward primer (0.1 μg of 5′-AAT CCG TCG AGC AGA GTT-3′) at 30° C. for 10 min to allow the initial elongation to take place. Elongated products were purified using the QIAquick nucleotide purification kit (Qiagen) according to the manufacturer's instructions. Eluted samples were freeze-dried and re-dissolved in PCR grade water. Re-dissolved PCR products were subjected to amplification in master mix containing ACX reverse primer (1 μM, 5′-GCG CGG [CTTACC]3 CTA ACC-3′), TS forward primer (0.1 μg), TRAP buffer, BSA (5 μg), 0.5 mM dNTPs, and 2U RedHot TAQ polymerase (ABgene, U.K.) for 35 cycles of 94° C. for 30 s, 61° C. for 1 min, and at 72° C. for 1 min. […]

The test system of data set [4] is MiaPaCa2 (pancreatic) cells. The experiment in a line: SRB growth inhibition assay, MiaPaCa2. In kind it is cell-based, human. Put shortly: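 Growth inhibition of MiaPaCa2 cells was measured by SRB staining after 96 h exposure to 2-fold serial dilutions of compound dissolved in DMSO. IC50 was derived from mean absorbance at 540 nm expressed as a percentage of untreated control wells.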

What is called Cmax is the peak of the concentration-time curve. What is called half-life is the time needed for the level to fall by half in the phase considered. A high value points to slow loss. As usually defined, the IC50 is the concentration that inhibits the measured activity by half. With `CN1CCN(CCCNc2cc3c4c(c(NCCCN5CCN(C)CC5)cc5c4c2C(=O)N(CCCN2CCOCC2)C5=O)C(=O)N(CCCN2CCOCC2)C3=O)CC1` [Compound 3d, 4,9-bis((3-(4-methylpiperazin-1-yl)propyl)amino)-2,7-bis(3-morpholinopropyl)benzo[lmn][3,8]phenanthroline-1,3,6,8(2H,7H)-tetraone], the tolerability of therapy entry in data set [1] (15 mg/kg once weekly) is on record as “well tolerated”. Besides, the bodyweight loss result in data set [1] (single dose 20 mg/kg or 15 mg/kg once weekly) is given as “without any significant bodyweight loss”. Also, in data set [2], the “drug level at 24 hours” value is listed as “no detectable drug”. The Cmax in data set [2] (female, Balb/c, mouse, in vivo) stood at 1600 nM. This compound had a half-life in data set [2] (female, Balb/c, mouse, in vivo) of 4 h. Further, the “expression of DNA damage checkpoint genes ATM and ATR” value in data set [3] (24 h) is on record as “no significant induction or repression”. For the same compound, the “induction of γ-H2AX” value in data set [3] (Mia-PaCa2 cells, data not shown) was “no apparent induction; also recorded: do not appear to induce these particular changes”. The “expression of CDKN1A, DDIT3 and GADD45G” value in data set [3] (cytotoxic concentrations) is “strongly up-regulated”; in data set [3] (lower concentrations) it was “strongly down-regulated”. The “expression of the PARP gene” value in data set [3] (dose-dependent) is “down-regulated”. For the same compound, in data set [3] (of 83 genes, 20, 40, 80 or 160 nM, 24 h), the “number of DNA damage response genes significantly increased or decreased greater than 2-fold” value is reported as 16 genes. Besides, the telomerase activity inhibition result in the data set with telomerase is “not inhibitors of telomerase activity”. Besides, the “selectivity for Mia-PaCa2 compared to the normal fibroblast line WI-38” value in data set [4] was about 20 fold. In addition, the half-inhibitory concentration (IC50) in data set [4] (Homo sapiens, MIA PaCa-2, SRB assay, 96 h exposure, read-out: IC50 Mia-PaCa2) was in the range of 10 to 20 nM. Besides, the “growth response of MiaPaCa2 cells” value in data set [4] (exposure to 80 nM) is listed as “no growth recovery”; in data set [4] (exposure to 160 nM) it was “no viable cells could be recovered by 72 h”; in data set [4] (exposure to between 5 nM and 40 nM), “titratable growth inhibition with subsequent full recovery of confluent growth at 144 h”.
